From the supplement of paper PMC10307832

Legend:
Assay in all cases: relative viability (nuclei count vs DMSO), 5 days (fraction); higher = more cells survive
Pazopanib + Palbociclib = compound: Cc1ccc(Nc2nccc(N(C)c3ccc4c(C)n(C)nc4c3)n2)cc1S(N)(=O)=O [Pazopanib] + CC(=O)c1c(C)c2cnc(Nc3ccc(N4CCNCC4)cn3)nc2n(C2CCCC2)c1=O [Palbociclib] (partner 0.5 µM)
Summary of the method: (§1)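 Dosing by pin tool came one day after lung cancer cell lines were seeded in 1536-well plates, using either one drug or a fixed anchor-drug dose plus five library-drug doses (not always all listed) in √10 steps. After 5 days, nuclei were counted on 4× images. Relative viability is treated-well nuclei count divided by vehicle-well nuclei count, and values are medians of duplicate plates.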

Ponatinib + Alpelisib = compound: Cc1ccc(C(=O)Nc2ccc(CN3CCN(C)CC3)c(C(F)(F)F)c2)cc1C#Cc1cnc2cccnn12 [Ponatinib] + Cc1nc(NC(=O)N2CCC[C@H]2C(N)=O)sc1-c1ccnc(C(C)(C)C(F)(F)F)c1 [Alpelisib] (partner 2 µM)
Summary of the method: as §1

Pazopanib + Bortezomib = compound: Cc1ccc(Nc2nccc(N(C)c3ccc4c(C)n(C)nc4c3)n2)cc1S(N)(=O)=O [Pazopanib] + CC(C)C[C@H](NC(=O)[C@H](Cc1ccccc1)NC(=O)c1cnccn1)B(O)O [Bortezomib] (partner 0.002 µM)
Summary of the method: as §1

Pazopanib + AZD7762 = compound: Cc1ccc(Nc2nccc(N(C)c3ccc4c(C)n(C)nc4c3)n2)cc1S(N)(=O)=O [Pazopanib] + NC(=O)Nc1cc(-c2cccc(F)c2)sc1C(=O)N[C@H]1CCCNC1 [AZD7762] (partner 0.2 µM)
Summary of the method: as §1

Cell Line	relative viability (Pazopanib + Palbociclib; first compound 0.03162 µM)	relative viability (Pazopanib + Palbociclib; first compound 0.1 µM)	relative viability (Pazopanib + Palbociclib; first compound 0.3162 µM)	relative viability (Pazopanib + Palbociclib; first compound 1 µM)	relative viability (Ponatinib + Alpelisib; first compound 0.002 µM)	relative viability (Ponatinib + Alpelisib; first compound 0.006325 µM)	relative viability (Ponatinib + Alpelisib; first compound 0.06325 µM)	relative viability (Ponatinib + Alpelisib; first compound 0.2 µM)	relative viability (Pazopanib + Bortezomib; first compound 0.01 µM)	relative viability (Pazopanib + Bortezomib; first compound 0.03162 µM)	relative viability (Pazopanib + Bortezomib; first compound 0.1 µM)	relative viability (Pazopanib + Bortezomib; first compound 0.3162 µM)	relative viability (Pazopanib + Bortezomib; first compound 1 µM)	relative viability (Pazopanib + AZD7762; first compound 0.03162 µM)	relative viability (Pazopanib + AZD7762; first compound 0.1 µM)	relative viability (Pazopanib + AZD7762; first compound 0.3162 µM)	relative viability (Pazopanib + AZD7762; first compound 1 µM)	relative viability (Pazopanib + Palbociclib; first compound 0.01 µM)	relative viability (Pazopanib + AZD7762; first compound 0.01 µM)
EMC-BAC-2	0.522	0.488	0.511	0.492	0.695	0.707	0.82	0.721	0.889	1.11	1.1	1.04	1.22	1.14	1.09	1.14	1.2	–	–
LU99A	0.39	0.447	0.444	0.416	0.519	0.453	0.62	0.466	0.913	1.18	1.18	1.25	1.25	0.347	0.466	0.343	0.384	–	–
NCI-H358	0.141	0.121	0.112	0.122	0.886	0.95	0.942	0.772	–	–	–	–	–	0.571	0.693	0.633	0.558	0.134	0.484
NCI-H1299	–	–	–	–	1.04	1.09	0.987	0.935	0.998	0.987	1.05	1.03	1.02	–	–	–	–	–	–
EBC-1	–	–	–	–	0.78	0.836	0.903	0.846	0.524	0.602	0.712	0.519	0.65	–	–	–	–	–	–
NCI-H1648	–	0.229	0.281	0.279	–	–	–	–	–	–	–	–	–	–	0.668	0.711	0.796	–	–
ChaGo-K-1	0.927	0.973	0.927	0.873	–	–	–	–	1.12	1.1	0.952	0.91	0.951	0.859	0.971	0.82	0.865	0.949	0.859
NCI-H661	0.386	0.427	0.422	0.396	0.562	0.79	0.733	0.506	0.823	0.853	0.786	0.631	0.873	–	–	–	–	0.376	–
COR-L23	0.323	0.353	0.316	0.317	0.747	0.775	0.844	0.778	1.23	1.08	1.12	0.935	1.02	–	–	–	–	0.297	–
COR-L 105	0.363	0.413	0.437	0.438	0.976	0.846	1.31	0.935	0.903	0.859	0.684	0.765	0.977	–	–	–	–	0.364	–
LK-2	0.803	0.69	0.709	0.729	1.12	1.05	1.17	0.668	–	–	–	–	–	0.411	0.398	0.451	0.354	0.615	0.283
NCI-H2023	0.412	0.456	0.38	0.434	0.642	0.639	0.666	0.61	0.719	0.945	0.877	0.964	1.42	–	–	–	–	0.36	–
NCI-H2170	0.387	0.445	0.399	0.393	0.804	0.843	0.892	0.811	–	–	–	–	–	0.967	0.94	0.896	0.815	0.353	0.744
NCI-H1944	0.357	0.33	0.332	0.41	0.824	0.943	1.1	0.954	–	–	–	–	–	0.504	0.595	0.571	0.555	0.287	0.442
NCI-H596	–	–	–	–	0.428	0.449	0.495	0.399	0.872	1.14	0.962	1.16	1.02	1.1	1.03	1.16	1.03	–	0.925
A549	–	–	–	–	0.772	0.931	0.949	0.634	–	–	–	–	–	–	–	–	–	–	–
NCI-H520	0.23	0.244	0.224	0.188	0.747	0.834	0.882	0.66	–	0.612	0.73	0.744	0.737	–	–	–	–	0.185	–
SK-MES-1	0.352	0.322	0.36	0.304	0.981	0.949	1.32	1.05	–	–	–	–	–	–	–	–	–	0.334	–
NCI-H1563	–	–	–	–	0.998	0.953	1	0.789	0.788	0.873	0.947	0.913	0.985	–	–	–	–	–	–
NCI-H1793	0.352	0.3	0.341	0.399	0.677	0.946	0.907	0.729	–	–	–	–	–	0.674	0.481	0.593	0.44	–	–
NCI-H2009	0.218	0.185	0.271	0.258	1.14	1.13	1.18	1.07	0.892	1.11	0.876	0.955	0.906	–	–	–	–	0.222	–
NCI-H522	0.97	1.05	0.887	0.883	–	–	–	–	–	–	–	–	–	0.667	1.09	1.03	0.857	0.973	0.679
IA-LM	–	–	–	–	0.756	0.657	0.828	0.722	0.889	1.05	0.77	0.797	0.597	–	–	–	–	–	–
SW 1573	0.349	0.454	0.367	0.365	0.788	0.716	0.857	0.693	0.945	1.14	1.08	1.09	1.17	–	–	–	–	0.468	–
NCI-H1703	–	–	–	–	0.299	0.355	0.225	0.186	0.26	0.262	0.233	0.267	0.214	0.12	0.16	0.14	0.125	–	–
SW 900	0.636	–	0.65	0.595	–	–	–	–	–	–	–	–	–	0.566	–	0.635	0.605	0.463	0.462
